Experimental data as given in US20090275099A1 (priority 2004, published 2009).
Like-named read-outs stand apart in the source and are kept apart here.

What was measured:
[1] = target: T1, mitochondrial F1F0-ATPase (Bos taurus, UniProt P13621+P32876); test: biochemical; set-up: species or system bovine; conditions: for EC50: bovine SMPs
[2] = target: T1, mitochondrial F1F0-ATPase; test: biochemical; set-up: species or system bovine; conditions: for Ki: synthesis
[3] = target: T2, bovine serum albumin (BSA) (Bos taurus, UniProt P02769); test: binding to bovine serum albumin in tissue culture media; assay type: in vitro ADME; conditions: tissue culture media containing 10% (v/v) FBS
T2 construct: from tissue; host or cells: fetal bovine serum in tissue culture media
T2 sequence (P02769 25-607): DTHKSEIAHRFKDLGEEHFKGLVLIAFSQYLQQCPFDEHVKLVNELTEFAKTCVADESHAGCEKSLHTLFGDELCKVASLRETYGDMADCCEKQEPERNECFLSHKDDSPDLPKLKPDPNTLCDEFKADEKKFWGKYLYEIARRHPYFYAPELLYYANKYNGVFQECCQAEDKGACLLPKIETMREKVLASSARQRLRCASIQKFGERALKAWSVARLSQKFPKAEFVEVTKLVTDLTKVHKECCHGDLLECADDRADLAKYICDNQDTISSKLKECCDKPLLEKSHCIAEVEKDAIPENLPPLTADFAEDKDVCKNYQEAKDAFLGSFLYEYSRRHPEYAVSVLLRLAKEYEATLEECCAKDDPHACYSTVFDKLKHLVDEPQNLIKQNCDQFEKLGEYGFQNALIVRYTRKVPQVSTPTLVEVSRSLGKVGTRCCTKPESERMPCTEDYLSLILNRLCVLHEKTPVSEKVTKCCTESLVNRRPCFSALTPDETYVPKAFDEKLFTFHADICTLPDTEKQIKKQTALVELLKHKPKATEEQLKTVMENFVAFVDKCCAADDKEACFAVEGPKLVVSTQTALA
Description: (§1) Like most 1,4-benzodiazepines, Bz-423 binds strongly to bovine serum albumin (BSA), which reduces the effective concentration of drug free in solution. For example, in tissue culture media containing 10% (v/v) fetal bovine serum (FBS), ca. 99% of the drug is bound to BSA. Therefore, cell culture cytotoxicity assays are conducted in media with 2% FBS to reduce binding to BSA and increase the free [Bz-423]. Under these conditions, the dose response-curve is quite sharp such that there is a limited concentration range at which Bz-423 is only partly effective. Since some benzodiazepines are known to have anti-proliferative properties, the effect of Bz-423 at concentrations <ED50 were carefully analyzed and observed that in addition to inducing apoptosis, Bz-423 prevented cell growth after 3 d in culture. In these low serum conditions, the cytotoxic and anti-proliferative effects overlapped making it difficult to study each effect independently. […] While higher amounts of drug may also block proliferation, it caused apoptosis well before the effects on proliferation could be observed.

Ramos cells [4] = test: antiproliferation, 72 h, 10% FBS; assay type: cell-based; conditions: Homo sapiens, read-out: ED50 for antiproliferation
Description: as §1
(§2) To confirm the decrease in cell number relative to control cells after 3 d of treatment is due to decreased proliferation and not cell death balanced by proliferation, in addition to cell counting, cell divisions were studied. PKH-67 is a fluorescent probe that binds irreversibly to cell membranes and upon cell division is partitioned equally between the daughter cells, making it possible to quantify cell division by flow cytometry. Ramos cells stained with PKH67 and treated with Bz-423 had fewer cell divisions at sub-cytotoxic concentrations which confirmed that the decrease in cell number was due to anti-proliferative affects and not cell death. To determine if Bz-423 induced anti-proliferation was specific to Ramos cells, cell counting and cell cycle experiments were done in other B cell lines and cell lines derived from solid tumors.

[5] = system: Ramos clones transfected to overexpress Bcl-2; test: antiproliferation, 72 h, 10% FBS; assay type: cell-based; conditions: Homo sapiens, Bcl-2, 72 h, read-out: ED50 for antiproliferation
Description: as §1, §2

[6] = system: Ramos clones transfected to overexpress Bcl-xL; test: antiproliferation, 72 h, 10% FBS; assay type: cell-based; conditions: Homo sapiens, read-out: ED50 for antiproliferation
Description: as §1, §2

[7] = system: malignant B cell line CA46; test: antiproliferation, 72 h, 10% FBS; assay type: cell-based; conditions: Homo sapiens, CA46, 72 h, read-out: ED50 for antiproliferation
Description: as §1, §2

[8] = system: malignant B cell line Raji; test: antiproliferation, 72 h, 10% FBS; assay type: cell-based; conditions: Homo sapiens, read-out: ED50 for antiproliferation
Description: as §1, §2

[9] = system: neuroblastoma cell line IMR-32; test: antiproliferation, 72 h, 10% FBS; assay type: cell-based; conditions: Homo sapiens, IMR-32, 72 h, read-out: ED50 for antiproliferation
Description: as §1, §2

[10] = system: neuroblastoma cell line Lan-1; test: antiproliferation, 72 h, 10% FBS; assay type: cell-based; conditions: LAN1, Lan-1, 72 h, read-out: ED50 for antiproliferation
Description: as §1, §2

[11] = system: neuroblastoma cell line SHEP-1; test: antiproliferation, 72 h, 10% FBS; assay type: cell-based; conditions: SH-EP1, SHEP-1, 72 h, read-out: ED50 for antiproliferation
Description: as §1, §2

[12] = system: ovarian cells with null p53 (SKOV3); test: antiproliferation, 72 h, 10% FBS; assay type: cell-based; conditions: Homo sapiens, SK-OV-3, SKOV3, 72 h, read-out: ED50 for antiproliferation
Description: as §1, §2

Ramos cells [13] = test: cell culture cytotoxicity assays; assay type: cell-based, human; conditions: 10% FBS
Description: as §1, §2

Ramos B cells = test: cell death of Ramos B cells, propidium iodide exclusion by flow cytometry, 24 h; assay type: cell-based, human; conditions: Homo sapiens, Ramos, 24 h; read-out: Cell death EC50 (μM), Ramos cells
Jurkat cells = test: cell death at 24 h; assay type: cell-based; conditions: Homo sapiens, Jurkat, 24 h, read-out: Cell death EC50 (μM), Jurkat cells
Description: Since an early mitochondrial superoxide (O2^−) mediates apoptosis induced by Bz-423, the O2^− response of cells 1 h following incubation with drug was examined, as well as cell death at 24 h, as previously described (see, e.g., Blatt, N. B., et al., 2002 J Clin Invest 110, 1123-1132; incorporated herein by reference in its entirety).

CN1C(=O)C(Cc2ccc3ccccc3c2)N=C(c2ccc(O)cc2)c2cc(Cl)ccc21 (stereo not shown) [Bz-423]
Ki [1]: 11 ± 0.4 µM
EC50 ([1]; ATPase activity EC50 (μM), Hydrolysis): 8.9 µM
EC50 ([1]; ED 50, inhibition of mitochondrial ATPase activity): ~5 µM
EC50 ([2]; ATPase activity EC50 (μM), Synthesis, bovine SMPs): 5.5 µM
Ki ([2]; Ki (E), three-dimensional fit, Bz-423): 6.9 ± 0.3 µM
Ki ([2]; Ki (ES), three-dimensional fit, Bz-423): 10 ± 1 µM
Ki ([2]; competitive inhibition constant (Ki(E)), fit of dependence of Vmax/Km on Bz-423 concentration): 7.2 ± 0.3 µM
Ki ([2]; uncompetitive inhibition constant (Ki(ES)), fit of dependence of Vmax on Bz-423 concentration): 11 ± 2 µM
drug bound to BSA [3]: ca. 99%
EC50 (Ramos cells [4]): 10.7 µM
EC50 [5]: 11.9 µM
EC50 [6]: 13.7 µM
EC50 [7]: 13.4 µM
EC50 [8]: 12.9 µM
EC50 [9]: 18 µM
EC50 [10]: 13.7 µM
EC50 [11]: 15.9 µM
EC50 [12]: 18.2 µM
amounts of drug with minimal cytotoxicity (Ramos cells [13]): 10 to 15 µM
concentrations at which only apoptosis was observed (Ramos cells [13]): > 20 µM
EC50 (Ramos B cells): 6.3 µM
EC50 (Jurkat cells): 6 µM
